Test system: ovine ABCG2
Test: Transepithelial transport assay in MDCK-II cells transduced with ovine ABCG2
Assay type: in vitro ADME
Conditions: sheep, MDCK-II oABCG2, nitroxynil 10 µM, no Ko143, read-out: Relative efflux transport ratio (BA/AB)
Protocol: Parental Madin–Darby canine kidney epithelial cells (MDCK–II) and their subclones transduced with murine (mAbcg2) and human (hABCG2) variants of ABCG2 were kindly provided by Dr. A. H. Schinkel (Netherlands Cancer Institute). Transduced MDCK–II cells with the ovine (oABCG2) and bovine (bABCG2) variants were previously generated by our group. Cells were cultured as described elsewhere.
Transepithelial transport assays were carried out as previously described with minor variations, using Hanks’ balanced salt solution (Sigma-Aldrich) supplemented with HEPES (25 mM), with or without Ko143 (1 μM), and containing or not nitroxynil 10 μM. […] At the end of the experiment, confluence of the monolayer was measured with the previously described Lucifer Yellow permeability test, with minor modifications. The appearance of nitroxynil in the opposite side of the well was measured by HPLC as later described. Active transport was expressed as relative efflux transport ratio (apically directed transport percentage divided by the basolaterally directed translocation percentage) at 4 h and referred to the initial concentration. […]
Waters 2695 separation module and Waters 2998 UV photodiode array detector set at 270 nm were used for samples analysis. […] Limit of detection (LOD) and quantification (LOQ) were calculated as previously described. […]

efflux ratio at 4 h, 10 µM: 27.4 ± 5.32
SMILES: N#Cc1cc(I)c(O)c([N+](=O)[O-])c1 [nitroxynil]
